ChEMBL document CHEMBL1201862, “PubChem BioAssay data set” (2004)
Activity calls are given as the source filed them.

How the values were obtained:
Cytochrome P450 3A4 = Cytochrome P450 3A4 (Homo sapiens, UniProt P08684);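 further: CYP3A4 tested as one member of a cytochrome P450 panel screen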
Cytochrome P450 1A2 = target: T1, Cytochrome P450 1A2 (Homo sapiens, UniProt P05177);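 further: PubChem cytochrome P450 panel assay, CYP1A2 panel member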
T1 sequence (P05177 whole entry): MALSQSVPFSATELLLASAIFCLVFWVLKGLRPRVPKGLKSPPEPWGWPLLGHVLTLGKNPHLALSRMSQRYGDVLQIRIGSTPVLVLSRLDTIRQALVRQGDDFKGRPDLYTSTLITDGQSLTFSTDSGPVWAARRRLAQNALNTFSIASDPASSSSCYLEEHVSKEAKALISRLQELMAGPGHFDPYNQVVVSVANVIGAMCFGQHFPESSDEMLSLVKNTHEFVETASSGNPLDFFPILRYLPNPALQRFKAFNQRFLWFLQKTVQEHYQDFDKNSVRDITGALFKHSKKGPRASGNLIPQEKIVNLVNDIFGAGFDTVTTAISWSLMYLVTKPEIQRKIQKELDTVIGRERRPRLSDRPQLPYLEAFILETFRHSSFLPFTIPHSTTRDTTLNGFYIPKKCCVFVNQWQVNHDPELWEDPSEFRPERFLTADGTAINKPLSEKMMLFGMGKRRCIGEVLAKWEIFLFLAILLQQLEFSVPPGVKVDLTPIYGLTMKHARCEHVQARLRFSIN

[1] = target: T2, Heat shock factor protein 1 (Mus musculus, UniProt P38532); assay: inhibition of MG132-induced HSE-luciferase signal, confirmation, cell-based, NIH3T3, luminescence, dose retest (AID 2382); format: functional;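 further: NIH3T3 fibroblasts with HSF1-driven luciferase reporter stressed by proteasome inhibitor MG132; luminescence from HSF1-driven luciferase expression after 8 hours of MG132 stress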
T2 sequence (P38532 whole entry): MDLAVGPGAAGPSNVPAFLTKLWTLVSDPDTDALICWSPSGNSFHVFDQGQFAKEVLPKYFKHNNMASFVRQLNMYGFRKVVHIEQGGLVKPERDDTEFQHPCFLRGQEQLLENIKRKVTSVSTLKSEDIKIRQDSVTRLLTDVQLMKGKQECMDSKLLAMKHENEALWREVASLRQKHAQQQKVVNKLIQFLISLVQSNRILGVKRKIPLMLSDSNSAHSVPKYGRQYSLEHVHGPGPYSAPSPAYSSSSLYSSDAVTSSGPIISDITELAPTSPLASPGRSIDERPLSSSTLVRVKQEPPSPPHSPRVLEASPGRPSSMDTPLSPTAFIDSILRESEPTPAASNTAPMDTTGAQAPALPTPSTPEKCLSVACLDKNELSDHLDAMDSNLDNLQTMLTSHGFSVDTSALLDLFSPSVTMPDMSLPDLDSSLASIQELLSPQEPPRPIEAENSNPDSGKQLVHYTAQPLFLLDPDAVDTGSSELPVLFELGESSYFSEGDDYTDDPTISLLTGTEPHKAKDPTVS

Streptokinase A = target: T3, Streptokinase A (Streptococcus pyogenes serotype M1, UniProt P10520); assay: S. pyogenes streptokinase expression inhibitors, potency, dose response, plasminogen activation absorbance, OD405 (AID 1914); format: functional, Streptococcus pyogenes M1 GAS;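 further: secreted streptokinase activity via plasminogen activation per viability signal from cell pellet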
T3 sequence (P10520 whole entry): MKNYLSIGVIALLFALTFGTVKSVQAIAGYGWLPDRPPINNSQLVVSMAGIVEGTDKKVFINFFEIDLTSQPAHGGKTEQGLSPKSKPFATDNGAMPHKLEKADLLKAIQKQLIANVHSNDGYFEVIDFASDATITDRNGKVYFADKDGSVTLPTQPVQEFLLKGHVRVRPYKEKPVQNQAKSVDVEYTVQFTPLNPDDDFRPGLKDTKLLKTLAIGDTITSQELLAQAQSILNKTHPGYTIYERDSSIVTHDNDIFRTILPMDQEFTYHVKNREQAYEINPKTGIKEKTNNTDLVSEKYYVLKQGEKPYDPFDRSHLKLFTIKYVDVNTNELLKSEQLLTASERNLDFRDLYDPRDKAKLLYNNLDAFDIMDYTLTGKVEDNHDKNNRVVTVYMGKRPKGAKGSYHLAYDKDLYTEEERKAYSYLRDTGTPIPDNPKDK

Cytochrome P450 2C9 = Cytochrome P450 2C9 (Homo sapiens, UniProt P11712)
Chain of Cytochrome P450 2C9 (P11712 whole entry): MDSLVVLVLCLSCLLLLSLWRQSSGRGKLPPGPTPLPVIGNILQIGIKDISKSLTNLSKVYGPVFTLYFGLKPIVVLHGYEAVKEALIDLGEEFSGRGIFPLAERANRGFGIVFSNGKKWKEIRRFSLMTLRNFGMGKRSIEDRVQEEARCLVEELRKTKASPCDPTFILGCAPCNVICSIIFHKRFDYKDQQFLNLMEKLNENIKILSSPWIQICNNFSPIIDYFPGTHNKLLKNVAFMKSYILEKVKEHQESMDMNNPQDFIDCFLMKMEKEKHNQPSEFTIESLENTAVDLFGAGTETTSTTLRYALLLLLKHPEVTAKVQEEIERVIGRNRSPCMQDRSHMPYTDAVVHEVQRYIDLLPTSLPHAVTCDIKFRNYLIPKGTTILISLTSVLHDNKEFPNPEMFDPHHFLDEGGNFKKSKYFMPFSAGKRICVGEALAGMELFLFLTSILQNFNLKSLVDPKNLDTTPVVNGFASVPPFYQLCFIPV

Cytochrome P450 2C19 = Cytochrome P450 2C19 (Homo sapiens, UniProt P33261); assay: Cytochrome panel assay with activity outcomes. Panel member name: p450-cyp2c19 Compounds with AC50 equal or less than 10 uM are considered active; format: functional; settings: read-out: AC50
Chain of Cytochrome P450 2C19 (P33261 whole entry): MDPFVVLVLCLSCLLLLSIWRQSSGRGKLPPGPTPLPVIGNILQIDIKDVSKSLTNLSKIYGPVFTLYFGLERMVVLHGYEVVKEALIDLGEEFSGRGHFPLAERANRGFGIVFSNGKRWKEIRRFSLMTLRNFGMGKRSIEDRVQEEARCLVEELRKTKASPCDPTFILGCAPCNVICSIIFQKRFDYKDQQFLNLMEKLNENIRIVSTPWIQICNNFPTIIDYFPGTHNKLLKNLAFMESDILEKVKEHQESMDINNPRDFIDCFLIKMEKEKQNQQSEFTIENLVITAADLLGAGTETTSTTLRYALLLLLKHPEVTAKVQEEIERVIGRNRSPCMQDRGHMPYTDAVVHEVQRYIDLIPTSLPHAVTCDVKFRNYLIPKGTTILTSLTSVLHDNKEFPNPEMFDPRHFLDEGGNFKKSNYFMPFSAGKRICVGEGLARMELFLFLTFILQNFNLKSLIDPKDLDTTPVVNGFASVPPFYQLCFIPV

[2] = system: Streptococcus sp. 'group A'; assay: growth inhibition of control SK(-) GAS strain, dose response, counter-screen for streptokinase expression inhibitor project, luminescence, kanamycin, BacTiterGlo, confirmation (AID 1900); format: functional, organism-based
Streptococcus = assay: Group A Streptococcus viability loss, dose response, counter-screen for streptokinase expression inhibitor project, luminescence, BacTiterGlo (AID 1915); format: functional, organism-based;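 further: potency for reduction of bacterial viability or growth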
[3] = inhibitors of firefly luciferase expression or activity, dose response, H4 neuroglioma cells, luminescence (AID 1990); format: functional, cell-based
[4] = inhibitors of SNCA 5'UTR-driven reporter translation, confirmation, H4 neuroglioma cells, luminescence (AID 1988); format: functional, cell-based
[5] = Luminescence Cell-Based Dose Response HTS to Identify Inhibitors of 5'UTR Stem-Loop Driven Prion Protein mRNA Translation in H4 Neuroglioblastoma Cells. [Related pubchem assays: 1827 (Project Summary), 1813 (Primary HTS)]; format: functional

Chain of Cytochrome P450 3A4 (P08684 whole entry): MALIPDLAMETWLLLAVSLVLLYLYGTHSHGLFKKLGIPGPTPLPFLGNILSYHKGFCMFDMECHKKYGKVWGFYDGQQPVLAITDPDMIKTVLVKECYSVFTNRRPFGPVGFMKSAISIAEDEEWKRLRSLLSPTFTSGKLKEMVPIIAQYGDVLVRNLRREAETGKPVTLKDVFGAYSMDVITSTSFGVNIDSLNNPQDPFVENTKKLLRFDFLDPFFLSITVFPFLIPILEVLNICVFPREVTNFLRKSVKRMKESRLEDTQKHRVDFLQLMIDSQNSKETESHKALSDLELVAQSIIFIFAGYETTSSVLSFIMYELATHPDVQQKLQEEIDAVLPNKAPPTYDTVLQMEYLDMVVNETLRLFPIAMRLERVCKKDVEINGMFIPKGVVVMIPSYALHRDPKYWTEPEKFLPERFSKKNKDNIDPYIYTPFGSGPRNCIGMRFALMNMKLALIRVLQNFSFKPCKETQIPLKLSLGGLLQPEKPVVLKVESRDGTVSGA

| SMILES | AC50 (Cytochrome P450 1A2) | EC50 (Streptokinase A) | EC50 [2] | EC50 (Streptococcus) | further results |
| --- | --- | --- | --- | --- | --- |
| Clc1ccc(Sc2cc(N3CCOCC3)nc(-c3ccccc3)n2)cc1 | 1.41 µM (inconclusive) |  |  |  | AC50 (Cytochrome P450 3A4): 15.8 µM (inconclusive) |
| Cc1ccc2nc(N3CCN(Cc4nnnn4Cc4ccccc4)CC3)c(C#N)cc2c1 |  |  |  |  | EC50 [1]: > 195 µM (not active) |
| Cc1ccc(C(=O)NCCn2cc(SCC(=O)N3CCOCC3)c3ccccc32)cc1 |  |  |  |  | EC50 [1]: > 195 µM (not active) |
| Cc1cc(C)c2c(O)nc(SCC(=O)N(C)C)nc2n1 | 15.8 µM (inconclusive) |  |  |  |  |
| COc1ccc(CSCCNC(=S)Nc2ccccc2)cc1Cl |  | > 150 µM (not active) |  |  |  |
| COCCN(CCOC)S(=O)(=O)c1ccc(C(=O)Nc2nc(C)c(C(C)=O)s2)cc1 | 0.1 µM (inconclusive) |  |  |  | AC50 (Cytochrome P450 3A4): 3.16 µM (inconclusive); AC50 (Cytochrome P450 2C9): 20 µM (inconclusive) |
| Fc1cccc(CSc2ncnc3c2ncn3[C@H]2CCCS2)c1 | 0.501 µM (inconclusive) |  |  |  | AC50 (Cytochrome P450 2C19): 3.98 µM (inconclusive) |
| CC(CO)(CO)Nc1ncnc2ccccc12 | 6.31 µM (inconclusive) |  |  |  |  |
| CCCC(=O)Nc1ccc2c(c1)nc(CCNC(=O)c1ccccc1)n2C |  | > 150 µM (not active) | > 150 µM (not active) | > 150 µM (not active) |  |
| CC1=NN(c2ccc([N+](=O)[O-])cc2)C(=O)/C1=C\N(C)C |  | > 150 µM (not active) | 5.85 µM (active) | 10.9 µM (active) |  |
| CC(C)(C)NC(=O)c1ccc2c(c1)C1C3CCC(C3)C1C(c1ccccc1)N2 (stereo not given) |  |  |  |  | EC50 [3]: > 120 µM (not active); EC50 [4]: > 120 µM (not active); EC50 [5]: > 120 µM (not active) |
| Cn1nnnc1SCc1ccc(C(=O)Nc2ccc(Br)cc2)cc1 | 6.31 µM (inconclusive) |  |  |  | AC50 (Cytochrome P450 2C9): 2 µM (inconclusive); AC50 (Cytochrome P450 2C19): 6.31 µM (inconclusive) |
| CC1CCCN(S(=O)(=O)c2ccc(C(=O)Nc3nnc(C4CC4)o3)cc2)C1 (stereo not given) |  | > 150 µM (not active) | 4.14 µM (active) | 13.8 µM (active) |  |
| CN1C(=O)/C(=C/c2ccccc2F)Sc2ccc(C(=O)NCC3CCCO3)cc21 (stereo not given) |  | > 150 µM (not active) | 1.09 µM (active) | 15.6 µM (active) |  |
| COc1ccc(-c2nc3cnc(N4CCOCC4)nc3n(CCc3ccccc3)c2=O)cc1 | 10 µM (inconclusive) |  |  |  |  |
| CCc1cc(C(=O)NCC(C)(C)N2CCOCC2)sc1C |  |  |  |  | EC50 [1]: > 195 µM (not active) |
| C=CCC(NCc1ccco1)c1ccc(OC)cc1 (stereo not given) | 28.2 µM (inconclusive) |  |  |  | AC50 (Cytochrome P450 3A4): 22.4 µM (inconclusive) |
| CCN(CC)C(=O)c1cc(-c2ccc(Br)cc2)on1 |  | > 150 µM (not active) | > 150 µM (not active) | > 150 µM (not active) |  |
| COC(C(=O)Nc1ccnn1C1CCN(Cc2nccs2)CC1)c1ccccc1 (stereo not given) |  | > 150 µM (not active) | > 150 µM (not active) | > 150 µM (not active) |  |
